The source of these data is patent publication US20250282795A1, “EGFR Inhibitors in cancer treatment” (Celyn Therapeutics, Inc., priority 2022, published 2025).

Holding throughout (assay type): cell-based
In one series the test system is Ba/F3 (H773_V774insSVD). Description: Cellular growth inhibition assay (CellTiter-Glo), Ba/F3 (H773_V774insSVD). The note with it: Mus musculus, BaF3, 72 h; 3 days of incubation; read-out: Ba/F3 (H773_V774 insSVD) CC50. A general note: In ATP-based viability assays light output follows the ATP content of the culture.
Another series deals with Ba/F3 (A767_dupASV). Description: Cellular growth inhibition assay (CellTiter-Glo), Ba/F3 (A767_dupASV). The following applies: Mus musculus, BaF3, 72 h; 3 days of incubation; read-out: Ba/F3 (A767_dup ASV) CC50. The procedure:
(§1) Example E. Cellular Growth Inhibition Assay
(§2) Ba/F3(Empty vector) (Signosis), Ba/F3(Wild type) (Signosis), Ba/F3(L^858R+T790M) (Signosis), Ba/F3(A767_dupASV) (Signosis), Ba/F3(D770_N771insSVD) (Signosis), Ba/F3(H773_V774insNPH) (Signosis) were seeded at a density of 4000 cells per well in a CellBIND® 384-well Flat Clear Bottom Black Polystyrene Microplates (Coming, USA, Cat #3770) in 45 μl total volume of RPMI (PanEco, Cat #C330, Russia) with […] (HyClone, Cat #SV30160.03) and with 10 ng/ml rmIL-3 (RD systems, USA, Cat #403-ML-025) (for BaBF3(Empty vector)) and with 10 ng/ml rhEGF (ThermoFisher, USA, Cat #PHG0311L) (for BaCF3(Wild type)). 500× compounds solutions in DMSO (Sigma Cat #D2650) were prepared into Cmpnds plate (DiamondWell Plate, Axigen, Cat #P-384-120SQ-C—S) and DMSO only control was included. 1.l of 500× compounds (Cmpnds plate) was added to 49 µl of culture medium into Dilution plate (Diamond Well Plate, Axigen, Cat #P-384-120SQ-C—S), mixed and then 5 μl of 10× compounds solutions were transferred to cells followed by centrifugation at 100 g for 1 min. Final DMSO concentration was 0.2% o. After 3 days of incubation 10.l of CellTiter-Glo (Promega, CAT #G7572) were added to the cells, plate was centrifuged at 100 g for 1 min and luminescence signal was measured using Microplate Reader (CLARIOStar).

The next series concerns Ba/F3 (D770_N771insSVD). The series can be described thus: Cellular growth inhibition assay (CellTiter-Glo), Ba/F3 (D770_N771insSVD). The note with it: Mus musculus, BaF3, 72 h; 3 days of incubation; read-out: Ba/F3 (D770_N771 insSVD) CC50. The procedure:
as §1, §2

A further series relates to Ba/F3 (EGFRwt). The series can be described thus: Cellular growth inhibition assay (CellTiter-Glo), Ba/F3 (EGFRwt). The note with it: Mus musculus, BaF3, 72 h; Ba/F3 (Wild type) with 10 ng/ml rhEGF, 3 days of incubation. As to the method: as §1, §2
The nature of series [1]: Cellular growth inhibition assay (CellTiter-Glo), Ba/F3 (Empty vector). The following applies: mouse, Ba/F3 cells with empty vector; Ba/F3 (Empty vector) with 10 ng/ml rmIL-3, 3 days of incubation. As to the method:
as §1, §2

The next series deals with Ba/F3 (L858R + T790M). The series can be described thus: Cellular growth inhibition assay (CellTiter-Glo), Ba/F3 (L858R+T790M). The note with it: Mus musculus, BaF3, 72 h; 3 days of incubation. As to the method: as §1, §2

Regarding `COc1c(F)cccc1Nc1c2[nH]c3c1C(=O)NC(CC=CCOCCOc1cnccc1-2)C3` (stereo not drawn) [Compound 128, 20-(3-fluoro-2-methoxyanilino)-2,3,5,8,9,10-hexahydro-9,13-methano-12,15-(metheno)pyrido[3,4-e][1,4,8,12]dioxadiazacycloheptadecin-11(14H)-one], the CC50 with Ba/F3 (H773_V774insSVD) was over 10 µM; in the series on Ba/F3 (A767_dupASV), 1 to 10 µM; with Ba/F3 (D770_N771insSVD), over 10 µM; with Ba/F3 (EGFRwt), 1 to 10 µM; with Ba/F3 (L858R + T790M), over 10 µM. In addition, the CC50 at 3 days in series [1] was over 10 µM.
Take `COc1c(F)cccc1Nc1c2[nH]c3c1C(=O)NCC3CCCCCCN1CCCC(COc3cnccc3-2)C1` (stereo not drawn) [Compound 129, 24-(3-fluoro-2-methoxyanilino)-7,8,9,10,13,14,15,16,17,17a,18,19-dodecahydro-6H,12H-7,11-methano-21,23-(metheno)dipyrido[3,4-b: 4′,3′-f][1,5,14]oxadiazacyclononadecin-20(22H)-one]: the CC50 lay in the range of 0.1 to 1 µM in the series on Ba/F3 (H773_V774insSVD); 0.001 to 0.01 µM in the series with Ba/F3 (A767_dupASV); 0.01 to 0.1 µM in the series on Ba/F3 (D770_N771insSVD); 0.1 to 1 µM with Ba/F3 (EGFRwt); 1 to 10 µM in the series on Ba/F3 (L858R + T790M). In series [1], this compound showed a CC50 at 3 days of over 10 µM.
Regarding `COc1c(F)cccc1Nc1c2[nH]c3c1C(=O)NCC3CC(=O)N1CCN(CCOc3cnccc3-2)CC1` (stereo not drawn) [Compound 131, 20-(3-fluoro-2-methoxyanilino)-6,7,9,10,13,13a,14,15-octahydro-12H-8,11-ethano-17,19-(metheno)dipyrido[3,4-j: 4′,3′-n][1,4,7,12]oxatriazacyclopentadecine-12,16(18H)-dione], the CC50 lay within 0.1 to 1 µM in the series on Ba/F3 (H773_V774insSVD); 0.001 to 0.01 µM in the series with Ba/F3 (A767_dupASV); 0.01 to 0.1 µM in the series with Ba/F3 (D770_N771insSVD); 0.01 to 0.1 µM with Ba/F3 (EGFRwt); 0.1 to 1 µM in the series with Ba/F3 (L858R + T790M). In series [1], this compound gave a CC50 at 3 days of 1 to 10 µM.
As for `COc1c(F)cccc1Nc1c2[nH]c3c1C(=O)NCC3CC(=O)NCC(=O)NCCCOc1cnccc1-2` (stereo not drawn) [Compound 132, 21-(3-fluoro-2-methoxyanilino)-6,7,8,9,11,12,14,14a,15,16-decahydro-18,20-(metheno)dipyrido[3,4-k: 4′,3′-o][1,5,8,13]oxatriazacyclohexadecine-10,13,17(19H)-trione], the CC50 with Ba/F3 (H773_V774insSVD) was over 10 µM; in the series on Ba/F3 (A767_dupASV) it was 1 to 10 µM; in the series with Ba/F3 (D770_N771insSVD), over 10 µM; with Ba/F3 (EGFRwt), over 10 µM; in the series with Ba/F3 (L858R + T790M), over 10 µM. Besides, the CC50 at 3 days in series [1] is over 10 µM.
As for `COc1c(F)cccc1Nc1c2[nH]c3c1C(=O)NCC3CCCOCCN(C)CCCOc1cnccc1-2` (stereo not drawn) [Compound 145, 22-(3-fluoro-2-methoxyanilino)-9-methyl-6,7,8,9,10,11,13,14,15,15a,16,17-dodecahydro-19,21-(metheno)dipyrido[3,4-i: 4′,3′-m][1,8,4,12]dioxadiazacycloheptadecin-18(20H)-one], the CC50 was 0.1 to 1 µM with Ba/F3 (H773_V774insSVD); 0.01 to 0.1 µM in the series with Ba/F3 (A767_dupASV); 0.01 to 0.1 µM in the series on Ba/F3 (D770_N771insSVD); over 10 µM in the series with Ba/F3 (EGFRwt); over 10 µM in the series with Ba/F3 (L858R + T790M). The CC50 at 3 days in series [1] was over 10 µM.
Take `COc1c(F)cccc1Nc1c2[nH]c3c1C(=O)NC[C@@H]3CC(=O)N1CCC[C@H]1C(=O)NCCCOc1cnccc1-2` [Compound 147, (16aS,22aS)-23-(3-fluoro-2-methoxyanilino)-14,15,16a,17,18,19,22,22a-octahydro-2H,12H-4,6-(metheno)dipyrido[3,4-k: 4′,3′-o]pyrrolo[2,1-g][1,5,8,13]oxatriazacyclohexadecine-3,16,21(1H,5H,13H)-trione]: the CC50 in the series on Ba/F3 (H773_V774insSVD), with Ba/F3 (A767_dupASV), in the series on Ba/F3 (D770_N771insSVD), with Ba/F3 (EGFRwt) and with Ba/F3 (L858R + T790M) was over 10 µM in each case. In series [1], the CC50 at 3 days is over 10 µM.
